Test results: patent publication US20240165282A1, “CONFORMATIONAL CONSTRAINED SOMATOSTATIN RECEPTOR 3 PEPTIDE LIGANDS AND THEIR CONJUGATES AND USES THEREOF” (STARGET PHARMA LTD., priority 2021, published 2024)
*1 amine or outer side, *2 acyl side, *3 side chain or, on linkers, in order; H or OH if unused. Where a SMILES comes first, the peptide text is derived from it. Bridges are numbered along the chain shown (N, C = ends). [ ]: non-standard residue; d: D form. The star is where a group is joined. DOTA = O=C(O)CN1CCN(CC(=O)O)CCN(CC(=O)*)CCN(CC(=O)O)CC1; N(2-mercaptoethyl)Gly = O=C(CN(CCS[*:3])[*:1])[*:2]

What was measured:
Test in all cases: Cerep off-target radioligand binding
5-HT2B (h) = target: T1, 5-HT2B (h) (Homo sapiens, UniProt P41595); conditions: 1 micromolar; agonist radioligand; read-out: % Activity: Inhibition of Control Specific Binding
T1 construct: Eurofins Cerep (contract assay)
Protocol: (§1) In this example, off-target interactions for SEQ ID NO.
(§2) The assays were performed by Eurofins Cerep (Celle 1'Evescault, France). Compound binding was calculated as a % inhibition of the binding of a radioactively labeled ligand specific for each target. Compound enzyme inhibition effect was calculated as a % inhibition of control enzyme activity. In each experiment and if applicable, the respective reference compound was tested concurrently with SEQ ID NO. 3, and the data were compared with historical values determined at Eurofins. The experiment was accepted in accordance with Eurofins validation Standard Operating Procedure. Results showing an inhibition (or stimulation for assays run in basal conditions) higher than 50% are considered to represent significant effects of the test compounds.

M1 (h) = M1 (h) (Homo sapiens, UniProt P11229); conditions: 1 micromolar; antagonist radioligand; read-out: % Activity: Inhibition of Control Specific Binding
Protocol: as §1, §2

[1] = target: N neuronal alpha 4beta 2 (h) (Homo sapiens, UniProt P17787+P43681); conditions: 1 micromolar; agonist radioligand; read-out: % Activity: Inhibition of Control Specific Binding
Protocol: as §1, §2

ETA (h) = ETA (h) (Homo sapiens, UniProt P25101); conditions: 1 micromolar; agonist radioligand; read-out: % Activity: Inhibition of Control Specific Binding
Protocol: as §1, §2

CCK1 (CCKA) (h) = CCK1 (CCKA) (h) (Homo sapiens, UniProt P32238); conditions: 1 micromolar; agonist radioligand; read-out: % Activity: Inhibition of Control Specific Binding
Protocol: as §1, §2

A2A (h) = A2A (h) (Homo sapiens, UniProt P29274); conditions: 1 micromolar; agonist radioligand; read-out: % Activity: Inhibition of Control Specific Binding
Protocol: as §1, §2

D2S (h) = D2S (h) (Homo sapiens, UniProt P14416); conditions: 1 micromolar; agonist radioligand; read-out: % Activity: Inhibition of Control Specific Binding
Protocol: as §1, §2

M2 (h) = M2 (h) (Homo sapiens, UniProt P08172); conditions: 1 micromolar; antagonist radioligand; read-out: % Activity: Inhibition of Control Specific Binding
Protocol: as §1, §2

H2 (h) = H2 (h) (Homo sapiens, UniProt P25021); conditions: 1 micromolar; antagonist radioligand; read-out: % Activity: Inhibition of Control Specific Binding
Protocol: as §1, §2

M3 (h) = M3 (h) (Homo sapiens, UniProt P20309); conditions: 1 micromolar; antagonist radioligand; read-out: % Activity: Inhibition of Control Specific Binding
Protocol: as §1, §2

5-HT transporter (h) = target: T2, 5-HT transporter (h) (Homo sapiens, UniProt P31645); conditions: 1 micromolar; antagonist radioligand; read-out: % Activity: Inhibition of Control Specific Binding
T2 construct: Eurofins Cerep (contract assay)
Protocol: as §1, §2

5-HT1A (h) = target: T3, 5-HT1A (h) (Homo sapiens, UniProt P08908); conditions: 1 micromolar; agonist radioligand; read-out: % Activity: Inhibition of Control Specific Binding
T3 construct: Eurofins Cerep (contract assay)
Protocol: as §1, §2

dopamine transporter (h) = target: T4, dopamine transporter (h) (Homo sapiens, UniProt Q01959); conditions: 1 micromolar; antagonist radioligand; read-out: % Activity: Inhibition of Control Specific Binding
T4 construct: Eurofins Cerep (contract assay)
Protocol: as §1, §2

kappa (h) (KOP) = kappa (h) (KOP) (Homo sapiens, UniProt P41145); conditions: 1 micromolar; agonist radioligand; read-out: % Activity: Inhibition of Control Specific Binding
Protocol: as §1, §2

mu (MOP) (h) = target: T5, mu (MOP) (h) (Homo sapiens, UniProt P35372); conditions: 1 micromolar; agonist radioligand; read-out: % Activity: Inhibition of Control Specific Binding
T5 construct: Eurofins Cerep (contract assay)
Protocol: as §1, §2

5-HT1B (h) = target: T6, 5-HT1B (h) (Homo sapiens, UniProt P28222); conditions: 1 micromolar; antagonist radioligand; read-out: % Activity: Inhibition of Control Specific Binding
T6 construct: Eurofins Cerep (contract assay)
Protocol: as §1, §2

alpha 1A (h) = alpha 1A (h) (Homo sapiens, UniProt P35348); conditions: 1 micromolar; antagonist radioligand; read-out: % Activity: Inhibition of Control Specific Binding
Protocol: as §1, §2

5-HT2A (h) = target: T7, 5-HT2A (h) (Homo sapiens, UniProt P28223); conditions: 1 micromolar; agonist radioligand; read-out: % Activity: Inhibition of Control Specific Binding
T7 construct: Eurofins Cerep (contract assay)
Protocol: as §1, §2

GR (h) = target: T8, GR (h) (Homo sapiens, UniProt P04150); conditions: 1 micromolar; agonist radioligand; read-out: % Activity: Inhibition of Control Specific Binding
T8 construct: Eurofins Cerep (contract assay)
Protocol: as §1, §2

CB2 (h) = CB2 (h) (Homo sapiens, UniProt P34972); conditions: 1 micromolar; agonist radioligand; read-out: % Activity: Inhibition of Control Specific Binding
Protocol: as §1, §2

delta (DOP) (h) = delta (DOP) (h) (Homo sapiens, UniProt P41143); conditions: 1 micromolar; agonist radioligand; read-out: % Activity: Inhibition of Control Specific Binding
Protocol: as §1, §2

[2] = target: T9, norepinephrine transporter (h) (Homo sapiens, UniProt P23975); conditions: 1 micromolar; antagonist radioligand; read-out: % Activity: Inhibition of Control Specific Binding
T9 construct: Eurofins Cerep (contract assay)
Protocol: as §1, §2

[3] = target: T10, Potassium Channel hERG (human) (Homo sapiens, UniProt Q12809); conditions: [3H] Dofetilide, read-out: % Activity: Inhibition of Control Specific Binding
T10 construct: Eurofins Cerep (contract assay)
Protocol: as §1, §2

D1 (h) = D1 (h) (Homo sapiens, UniProt P21728); conditions: 1 micromolar; antagonist radioligand; read-out: % Activity: Inhibition of Control Specific Binding
Protocol: as §1, §2

V1a (h) = target: T11, V1a (h) (Homo sapiens, UniProt P37288); conditions: 1 micromolar; agonist radioligand; read-out: % Activity: Inhibition of Control Specific Binding
T11 construct: Eurofins Cerep (contract assay)
Protocol: as §1, §2

5-HT3 (h) = target: T12, 5-HT3 (h) (Homo sapiens, UniProt P46098); conditions: 1 micromolar; antagonist radioligand; read-out: % Activity: Inhibition of Control Specific Binding
T12 construct: Eurofins Cerep (contract assay)
Protocol: as §1, §2

CB1 (h) = CB1 (h) (Homo sapiens, UniProt P21554); conditions: 1 micromolar; agonist radioligand; read-out: % Activity: Inhibition of Control Specific Binding
Protocol: as §1, §2

beta 1 (h) = beta 1 (h) (Homo sapiens, UniProt P08588); conditions: 1 micromolar; agonist radioligand; read-out: % Activity: Inhibition of Control Specific Binding
Protocol: as §1, §2

beta 2 (h) = beta 2 (h) (Homo sapiens, UniProt P07550); conditions: 1 micromolar; antagonist radioligand; read-out: % Activity: Inhibition of Control Specific Binding
Protocol: as §1, §2

alpha 2A (h) = alpha 2A (h) (Homo sapiens, UniProt P08913); conditions: 1 micromolar; antagonist radioligand; read-out: % Activity: Inhibition of Control Specific Binding
Protocol: as §1, §2

H1 (h) = H1 (h) (Homo sapiens, UniProt P35367); conditions: 1 micromolar; antagonist radioligand; read-out: % Activity: Inhibition of Control Specific Binding
Protocol: as §1, §2

beta 1 (h), sequence (P08588 whole entry): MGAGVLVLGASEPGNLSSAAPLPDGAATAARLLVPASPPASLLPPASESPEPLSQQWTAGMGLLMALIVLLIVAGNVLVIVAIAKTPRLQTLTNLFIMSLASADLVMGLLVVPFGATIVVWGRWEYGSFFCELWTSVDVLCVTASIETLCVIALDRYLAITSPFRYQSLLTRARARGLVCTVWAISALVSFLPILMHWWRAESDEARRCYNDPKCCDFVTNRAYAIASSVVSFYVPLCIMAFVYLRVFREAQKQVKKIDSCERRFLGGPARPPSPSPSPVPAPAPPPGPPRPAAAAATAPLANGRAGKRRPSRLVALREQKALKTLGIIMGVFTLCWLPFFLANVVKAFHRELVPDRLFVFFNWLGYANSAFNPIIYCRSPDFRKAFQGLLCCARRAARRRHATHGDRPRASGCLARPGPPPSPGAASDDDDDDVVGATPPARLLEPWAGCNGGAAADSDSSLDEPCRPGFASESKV
A2A (h), sequence (P29274 whole entry): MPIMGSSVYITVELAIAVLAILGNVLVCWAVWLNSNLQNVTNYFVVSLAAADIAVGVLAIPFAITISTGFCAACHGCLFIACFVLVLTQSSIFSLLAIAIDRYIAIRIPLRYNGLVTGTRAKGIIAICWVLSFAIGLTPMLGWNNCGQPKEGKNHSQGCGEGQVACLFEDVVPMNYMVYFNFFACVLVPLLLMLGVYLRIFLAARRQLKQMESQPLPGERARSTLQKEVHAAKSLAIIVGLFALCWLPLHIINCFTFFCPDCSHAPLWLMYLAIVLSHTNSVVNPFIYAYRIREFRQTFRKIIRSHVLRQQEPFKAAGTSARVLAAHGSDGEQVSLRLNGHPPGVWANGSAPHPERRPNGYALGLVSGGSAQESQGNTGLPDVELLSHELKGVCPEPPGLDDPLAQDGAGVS
kappa (h) (KOP), sequence (P41145 whole entry): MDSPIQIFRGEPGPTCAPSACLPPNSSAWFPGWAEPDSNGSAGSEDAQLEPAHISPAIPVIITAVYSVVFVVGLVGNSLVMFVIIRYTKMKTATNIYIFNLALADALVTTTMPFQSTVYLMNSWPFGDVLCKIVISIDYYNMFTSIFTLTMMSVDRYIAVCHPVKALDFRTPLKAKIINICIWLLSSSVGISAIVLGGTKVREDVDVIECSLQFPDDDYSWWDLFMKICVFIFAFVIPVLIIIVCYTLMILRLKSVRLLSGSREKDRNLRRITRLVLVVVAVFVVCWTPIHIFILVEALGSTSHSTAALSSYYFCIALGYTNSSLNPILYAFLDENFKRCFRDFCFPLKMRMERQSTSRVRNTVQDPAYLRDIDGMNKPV
beta 2 (h), sequence (P07550 whole entry): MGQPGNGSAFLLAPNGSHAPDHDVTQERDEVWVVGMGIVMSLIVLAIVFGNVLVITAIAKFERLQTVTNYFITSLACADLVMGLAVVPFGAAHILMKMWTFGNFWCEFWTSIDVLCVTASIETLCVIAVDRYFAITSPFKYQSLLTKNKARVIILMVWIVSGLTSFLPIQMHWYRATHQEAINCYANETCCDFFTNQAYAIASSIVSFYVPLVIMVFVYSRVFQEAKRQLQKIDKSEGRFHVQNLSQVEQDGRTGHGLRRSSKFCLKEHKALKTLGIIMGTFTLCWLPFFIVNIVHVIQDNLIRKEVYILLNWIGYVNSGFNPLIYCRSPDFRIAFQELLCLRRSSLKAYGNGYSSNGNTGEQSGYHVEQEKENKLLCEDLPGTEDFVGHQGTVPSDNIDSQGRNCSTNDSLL
T7 sequence (P28223 whole entry): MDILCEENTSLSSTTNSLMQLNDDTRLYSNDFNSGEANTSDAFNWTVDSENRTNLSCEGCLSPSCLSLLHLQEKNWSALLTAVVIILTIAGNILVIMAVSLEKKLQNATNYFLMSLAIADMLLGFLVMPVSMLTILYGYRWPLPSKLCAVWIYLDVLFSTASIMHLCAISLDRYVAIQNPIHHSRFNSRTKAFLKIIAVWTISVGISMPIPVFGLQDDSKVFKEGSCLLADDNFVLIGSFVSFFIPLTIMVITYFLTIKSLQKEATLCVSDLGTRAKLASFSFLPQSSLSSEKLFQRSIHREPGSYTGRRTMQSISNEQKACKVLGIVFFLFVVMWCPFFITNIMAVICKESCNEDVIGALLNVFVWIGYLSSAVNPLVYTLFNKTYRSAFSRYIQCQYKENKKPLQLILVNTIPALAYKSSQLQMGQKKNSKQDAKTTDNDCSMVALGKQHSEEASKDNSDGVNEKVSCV
T8 sequence (P04150 whole entry): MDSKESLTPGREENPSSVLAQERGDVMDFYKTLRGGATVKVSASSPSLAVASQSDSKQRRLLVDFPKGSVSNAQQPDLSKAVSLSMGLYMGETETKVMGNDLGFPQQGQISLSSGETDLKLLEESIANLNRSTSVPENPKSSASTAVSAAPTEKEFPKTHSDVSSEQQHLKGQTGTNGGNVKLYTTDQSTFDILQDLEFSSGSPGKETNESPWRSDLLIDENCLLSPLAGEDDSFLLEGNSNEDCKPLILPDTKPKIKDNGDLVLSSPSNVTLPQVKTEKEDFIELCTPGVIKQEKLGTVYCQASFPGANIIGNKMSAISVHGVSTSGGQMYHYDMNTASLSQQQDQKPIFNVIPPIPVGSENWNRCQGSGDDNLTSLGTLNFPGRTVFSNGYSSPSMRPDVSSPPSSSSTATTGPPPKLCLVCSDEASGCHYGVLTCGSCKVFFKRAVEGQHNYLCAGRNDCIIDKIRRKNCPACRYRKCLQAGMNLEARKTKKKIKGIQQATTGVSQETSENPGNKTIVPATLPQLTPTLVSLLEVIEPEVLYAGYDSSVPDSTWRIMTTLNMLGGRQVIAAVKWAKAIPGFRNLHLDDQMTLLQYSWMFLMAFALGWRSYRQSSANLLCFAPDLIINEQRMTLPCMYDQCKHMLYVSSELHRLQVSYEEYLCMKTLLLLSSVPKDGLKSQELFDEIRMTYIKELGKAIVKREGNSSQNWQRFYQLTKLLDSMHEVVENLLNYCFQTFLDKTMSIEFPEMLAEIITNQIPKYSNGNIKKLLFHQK
T1 sequence (P41595 whole entry): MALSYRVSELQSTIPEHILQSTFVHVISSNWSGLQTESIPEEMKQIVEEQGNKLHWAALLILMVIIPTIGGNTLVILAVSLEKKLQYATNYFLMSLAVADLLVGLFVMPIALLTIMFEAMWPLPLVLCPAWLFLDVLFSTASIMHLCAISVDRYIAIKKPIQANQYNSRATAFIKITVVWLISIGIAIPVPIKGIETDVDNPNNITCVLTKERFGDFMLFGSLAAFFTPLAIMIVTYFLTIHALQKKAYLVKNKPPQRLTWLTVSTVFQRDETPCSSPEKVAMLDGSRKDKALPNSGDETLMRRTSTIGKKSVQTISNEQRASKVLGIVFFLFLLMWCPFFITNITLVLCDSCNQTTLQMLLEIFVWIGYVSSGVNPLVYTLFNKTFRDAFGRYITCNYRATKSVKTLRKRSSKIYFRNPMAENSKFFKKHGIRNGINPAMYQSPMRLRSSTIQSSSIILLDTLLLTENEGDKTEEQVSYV
T10 sequence (Q12809 whole entry): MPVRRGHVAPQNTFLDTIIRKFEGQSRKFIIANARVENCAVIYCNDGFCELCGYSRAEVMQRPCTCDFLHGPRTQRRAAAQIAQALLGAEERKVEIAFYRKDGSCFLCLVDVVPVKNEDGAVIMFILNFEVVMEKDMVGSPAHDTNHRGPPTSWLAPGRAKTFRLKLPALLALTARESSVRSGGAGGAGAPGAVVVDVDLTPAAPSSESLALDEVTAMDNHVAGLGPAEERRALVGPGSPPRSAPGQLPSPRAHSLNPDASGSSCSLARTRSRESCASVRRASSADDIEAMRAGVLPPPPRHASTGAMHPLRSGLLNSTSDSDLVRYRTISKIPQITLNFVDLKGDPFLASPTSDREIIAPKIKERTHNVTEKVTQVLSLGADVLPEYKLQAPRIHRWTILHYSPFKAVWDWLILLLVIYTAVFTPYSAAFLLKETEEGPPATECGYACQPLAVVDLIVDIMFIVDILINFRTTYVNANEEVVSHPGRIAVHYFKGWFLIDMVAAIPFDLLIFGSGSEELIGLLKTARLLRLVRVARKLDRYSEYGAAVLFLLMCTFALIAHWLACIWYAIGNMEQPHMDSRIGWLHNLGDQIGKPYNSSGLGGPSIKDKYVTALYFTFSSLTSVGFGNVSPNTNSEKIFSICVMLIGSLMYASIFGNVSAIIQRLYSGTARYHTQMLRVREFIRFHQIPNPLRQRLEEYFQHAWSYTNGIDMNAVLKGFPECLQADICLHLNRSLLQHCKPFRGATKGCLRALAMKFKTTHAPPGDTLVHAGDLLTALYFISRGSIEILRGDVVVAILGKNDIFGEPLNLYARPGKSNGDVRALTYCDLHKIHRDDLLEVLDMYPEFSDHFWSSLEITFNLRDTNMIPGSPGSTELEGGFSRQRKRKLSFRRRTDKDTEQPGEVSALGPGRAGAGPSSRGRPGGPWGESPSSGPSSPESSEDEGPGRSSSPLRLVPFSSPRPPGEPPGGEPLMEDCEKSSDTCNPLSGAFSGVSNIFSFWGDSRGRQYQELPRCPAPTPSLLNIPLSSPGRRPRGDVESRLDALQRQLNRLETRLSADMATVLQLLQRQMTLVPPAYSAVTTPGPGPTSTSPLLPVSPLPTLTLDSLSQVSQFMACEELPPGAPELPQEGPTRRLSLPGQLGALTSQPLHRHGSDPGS
T3 sequence (P08908 whole entry): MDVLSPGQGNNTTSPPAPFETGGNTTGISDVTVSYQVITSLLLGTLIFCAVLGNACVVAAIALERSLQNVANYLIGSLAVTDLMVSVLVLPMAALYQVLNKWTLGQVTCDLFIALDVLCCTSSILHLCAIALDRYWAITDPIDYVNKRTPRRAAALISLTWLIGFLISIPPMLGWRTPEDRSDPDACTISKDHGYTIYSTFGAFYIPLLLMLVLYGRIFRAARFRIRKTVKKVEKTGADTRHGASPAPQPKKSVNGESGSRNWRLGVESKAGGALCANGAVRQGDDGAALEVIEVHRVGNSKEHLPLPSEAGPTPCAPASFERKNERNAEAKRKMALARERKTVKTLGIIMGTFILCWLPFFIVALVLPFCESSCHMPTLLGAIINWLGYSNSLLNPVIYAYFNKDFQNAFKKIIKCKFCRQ

Compound: C[C@@H](O)[C@@H]1NC(=O)[C@H](CCCCN)NC(=O)[C@@H](Cc2c[nH]c3ccccc23)NC(=O)[C@H](Cc2ccccc2)NC(=O)[C@@H](NC(=O)[C@H](CCCNC(=N)N)NC(=O)[C@@H](Cc2ccccc2)NC(=O)CN2CCN(CC(=O)O)CCN(CC(=O)O)CCN(CC(=O)O)CC2)CSSCCN(CC(N)=O)C(=O)[C@H](Cc2ccccc2)NC1=O [SEQ ID NO: 3, DOTA-D-Phe^1-Arg^2-Cys^3-Phe^4-D-Trp^5-Lys^6-Thr^7-Phe^8-NTEG^9-NH2 cyclo 3-9] ({DOTA}-[dF]RCF[dW]KTF[N(2-mercaptoethyl)Gly]-NH2; disulfide 3-9)
- inhibition at 1 µM (5-HT2B (h)): -31%
- inhibition at 1 µM (M1 (h)): -3%
- inhibition at 1 µM [1]: -4%
- inhibition at 1 µM (ETA (h)): -3%
- inhibition at 1 µM (CCK1 (CCKA) (h)): -15%
- inhibition at 1 µM (A2A (h)): 0%
- inhibition at 1 µM (D2S (h)): 3%
- inhibition at 1 µM (M2 (h)): -4%
- inhibition at 1 µM (H2 (h)): -7%
- inhibition at 1 µM (M3 (h)): -7%
- inhibition at 1 µM (5-HT transporter (h)): -9%
- inhibition at 1 µM (5-HT1A (h)): -3%
- inhibition at 1 µM (dopamine transporter (h)): 12%
- inhibition at 1 µM (kappa (h) (KOP)): 10%
- inhibition at 1 µM (mu (MOP) (h)): 8%
- inhibition at 1 µM (5-HT1B (h)): 1%
- inhibition at 1 µM (alpha 1A (h)): -1%
- inhibition at 1 µM (5-HT2A (h)): -2%
- inhibition at 1 µM (GR (h)): -10%
- inhibition at 1 µM (CB2 (h)): -1%
- inhibition at 1 µM (delta (DOP) (h)): 10%
- inhibition at 1 µM [2]: -10%
- inhibition at 1 micromolar [3]: -9%
- inhibition at 1 µM (D1 (h)): -1%
- inhibition at 1 µM (V1a (h)): 0%
- inhibition at 1 µM (5-HT3 (h)): 1%
- inhibition at 1 µM (CB1 (h)): 1%
- inhibition at 1 µM (beta 1 (h)): 5%
- inhibition at 1 µM (beta 2 (h)): -6%
- inhibition at 1 µM (alpha 2A (h)): 2%
- inhibition at 1 µM (H1 (h)): 7%
